Columns and labels:
Type in all cases: in vivo
[1] = system: Scirpus juncoides; test: Test Example 1: herbicidal activity, application before weed generation in submerged conditions (symbol B); settings: application herbicide amount 320 g/ha
Outline: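 Ratings (5: ≥90%, near complete withering; 4: 70–<90%; 3: 40–<70%; 2: 20–<40%; 1: 5–<20%; 0: ≤5%) were assigned 3 weeks after the diluted emulsion was applied to the water surface of freshly sown, submerged pots.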

[2] = system: transplanted rice plant; test: Test Example 1: effect on crop, application before weed generation in submerged conditions (symbol a); settings: application herbicide amount 320 g/ha
Outline: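 Alluvial soil pots flooded to 4 cm water, sown with Echinochloa oryzacola, Scirpus juncoides and Monochoria vaginalis, then transplanted with 2.5 leaf stage rice seedlings; pre-emergence application. Greenhouse 25° C. to 30° C.; scored 0–5 by herbicidal ratio 3 weeks after application.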

[3] = system: Leptochloa chinensis; test: Test Example 3: herbicidal effect by foliage application, Wagner pot (symbol D); settings: application herbicide amount 320 g/ha
Outline: (§1)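 Herbicidal activity was rated three weeks after a foliar spray of diluted emulsion concentrate, applied at a predetermined dose to plants grown for 14 days from seed in waterlogged alluvial soil within a 25–30 °C greenhouse.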

[4] = system: Cyperus difformis; test: Test Example 3: herbicidal effect by foliage application, Wagner pot (symbol E); settings: application herbicide amount 320 g/ha
Outline: as §1

[5] = system: Echinochloa crus-galli var. crus-galli; test: Test Example 4: herbicidal effect by soil treatment (symbol H); settings: for H: Echinochloa crus-galli var. crus-galli, herbicidal effect grade: 320 g/ha
Outline: (§2)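 Seeds were sown in sterilized diluvial soil, covered with about 1.5 cm of soil, and the soil surface was sprayed with a water-diluted emulsion of the compound at a predetermined rate. Plants grew in a greenhouse at 25° C. to 30° C.; effects were scored visually 3 weeks after application.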

[6] = system: Lolium multiflorum Lam.; test: Test Example 4: herbicidal effect by soil treatment (symbol K); settings: for K: Lolium multiflorum Lam., herbicidal effect grade: 320 g/ha
Outline: as §2

[7] = system: Amaranthus retroflexus; test: Test Example 4: herbicidal effect by soil treatment (symbol N); settings: for N: Amaranthus retroflexus, herbicidal effect grade: 320 g/ha
Outline: as §2

[8] = system: Veronica persica; test: Test Example 4: herbicidal effect by soil treatment (symbol R); settings: for R: Veronica persica, herbicidal effect grade: 320 g/ha
Outline: as §2

[9] = system: corn; test: Test Example 4: effect on crop by soil treatment (symbol c); settings: for c: corn, effect grade on crop: 320 g/ha
Outline: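 The test used sterilized diluvial soil. Seed was set down in spots and overlaid with about 1.5 cm of soil before growth in a greenhouse kept at 25° C. to 30° C.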

[10] = system: beet; test: Test Example 4: effect on crop by soil treatment (symbol f); settings: for f: beet, effect grade on crop: 320 g/ha
Outline: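 Greenhouse culture at 25° C. to 30° C. followed sowing of seed in spots on sterilized diluvial soil with a soil cover close to 1.5 cm thick.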

[11] = system: Setaria viridis; test: Test Example 5: herbicidal effect by foliage application, plastic box (symbol G); settings: 320 g/ha, 3 weeks after application
Outline: (§3)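 Sowing in sterilized diluvial soil, 14 days' greenhouse growth at 25° C. to 30° C., then uniform small-sprayer foliar application of aqueous emulsion dilution; plants scored three weeks afterwards.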

[12] = system: Galium spurium; test: Test Example 5: herbicidal effect by foliage application, plastic box (symbol Q); settings: 320 g/ha, 3 weeks after application
Outline: as §3

[13] = system: Veronica persica; test: Test Example 5: herbicidal effect by foliage application, plastic box (symbol R); settings: 320 g/ha, 3 weeks after application
Outline: as §3

[14] = system: soybean; test: Test Example 5: effect on crop by foliage application, plastic box (symbol d); settings: 320 g/ha, 3 weeks after application
Outline: (§4)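 Soil: sterilized diluvial. Container: plastic box, 21 × 13 cm, 7 cm deep. Sowing: spot-like, ~1.5 cm cover. Growth: greenhouse, 25° C. to 30° C.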

[15] = system: wheat; test: Test Example 5: effect on crop by foliage application, plastic box (symbol e); settings: 320 g/ha, 3 weeks after application
Outline: as §4

[16] = application herbicide amount 320 g/ha

| Structure (SMILES) | Herbicidal effect grade, B: Scirpus juncoides [1] | Effect grade on crop, a: transplanted rice plant [2] | herbicidal effect on D (Leptochloa chinensis), grade 0-5 [3] | herbicidal effect on E, grade 0-5 [4] | H: Echinochloa crus-galli var. crus-galli, herbicidal effect grade [5] | K: Lolium multiflorum Lam., herbicidal effect grade [6] | N: Amaranthus retroflexus, herbicidal effect grade [7] | R: Veronica persica, herbicidal effect grade [8] | c: corn, effect grade on crop [9] | f: beet, effect grade on crop [10] | G: Setaria viridis, herbicidal effect (criteria 0-5) [11] | Q: Galium spurium, herbicidal effect (criteria 0-5) [12] | R: Veronica persica, herbicidal effect (criteria 0-5) [13] | d: soybean, effect on crop (criteria 0-5) [14] | e: wheat, effect on crop (criteria 0-5) [15] | G: Setaria viridis, herbicidal effect grade [11] | Q: Galium spurium, herbicidal effect grade [12] | R: Veronica persica, herbicidal effect grade [13] | d: soybean, effect on crop grade [14] | e: wheat, effect on crop grade [15] | also measured |
| --- | --- | --- | --- | --- | --- | --- | --- | --- | --- | --- | --- | --- | --- | --- | --- | --- | --- | --- | --- | --- | --- |
| CON=C(C)CC1CC(OC(=O)COc2ccc(I)cc2)=C(c2c(C)cc(C)cc2C)C1=O (stereo not drawn) [1-082] | 5 (Herbicidal ratio of 90% or more (almost completely withered)) | 5 (Herbicidal ratio of 90% or more (almost completely withered)) | 5 (Herbicidal ratio of 90% or more (almost completely withered)) | 5 (Herbicidal ratio of 90% or more (almost completely withered)) | 5 (Herbicidal ratio of 90% or more (almost completely withered)) | 5 (Herbicidal ratio of 90% or more (almost completely withered)) | 5 (Herbicidal ratio of 90% or more (almost completely withered)) | 0 (Herbicidal ratio of 5% or lower (almost no effect)) | 4 (Herbicidal ratio of 70% or higher and lower than 90%) | 0 (Herbicidal ratio of 5% or lower (almost no effect)) | 5 (Herbicidal ratio of 90% or more (almost completely withered)) | 0 (Herbicidal ratio of 5% or lower (almost no effect)) | 0 (Herbicidal ratio of 5% or lower (almost no effect)) | 4 (Herbicidal ratio of 70% or higher and lower than 90%) | 5 (Herbicidal ratio of 90% or more (almost completely withered)) | – | – | – | – | – | – |
| CON=C(CC1CC(O)=C(c2c(C)cc(C#C[Si](C)(C)C)cc2C)C1=O)C(C)C (stereo not drawn) [9-005] | 0 (Herbicidal ratio of 5% or lower (almost no effect)) | 4 (Herbicidal ratio of 70% or higher and lower than 90%) | – | – | – | – | – | – | – | – | – | – | – | – | – | 4 (Herbicidal ratio of 70% or higher and lower than 90%) | 0 (Herbicidal ratio of 5% or lower (almost no effect)) | 0 (Herbicidal ratio of 5% or lower (almost no effect)) | 0 (Herbicidal ratio of 5% or lower (almost no effect)) | 0 (Herbicidal ratio of 5% or lower (almost no effect)) | D (Leptochloa chinensis) herbicidal effect grade ([3]; Table 24): 5 (Herbicidal ratio of 90% or more (almost completely withered)); E herbicidal effect grade ([4]; Table 24): 2 (Herbicidal ratio of 20% or higher and lower than 40%); Herbicidal effect grade, H: Echinochloa crus-galli var. crus-galli [5, 16]: 0 (Herbicidal ratio of 5% or lower (almost no effect)); Herbicidal effect grade, K: Lolium multiflorum Lam. [6, 16]: 4 (Herbicidal ratio of 70% or higher and lower than 90%); Herbicidal effect grade, N: Amaranthus retroflexus [7, 16]: 0 (Herbicidal ratio of 5% or lower (almost no effect)); Herbicidal effect grade, R: Veronica persica [8, 16]: 0 (Herbicidal ratio of 5% or lower (almost no effect)); Effect on crop grade, c: corn [9, 16]: 0 (Herbicidal ratio of 5% or lower (almost no effect)); Effect on crop grade, f: beet [10, 16]: 0 (Herbicidal ratio of 5% or lower (almost no effect)) |
| CON=C(C)CC1CC(OC(=O)C2=C(Br)CCC2)=C(c2c(C)cc(C)cc2C)C1=O (stereo not drawn) [1-089] | 5 (Herbicidal ratio of 90% or more (almost completely withered)) | 5 (Herbicidal ratio of 90% or more (almost completely withered)) | 5 (Herbicidal ratio of 90% or more (almost completely withered)) | 5 (Herbicidal ratio of 90% or more (almost completely withered)) | 5 (Herbicidal ratio of 90% or more (almost completely withered)) | 5 (Herbicidal ratio of 90% or more (almost completely withered)) | 3 (Herbicidal ratio of 40% or higher and lower than 70%) | 0 (Herbicidal ratio of 5% or lower (almost no effect)) | 5 (Herbicidal ratio of 90% or more (almost completely withered)) | 0 (Herbicidal ratio of 5% or lower (almost no effect)) | 5 (Herbicidal ratio of 90% or more (almost completely withered)) | 0 (Herbicidal ratio of 5% or lower (almost no effect)) | 3 (Herbicidal ratio of 40% or higher and lower than 70%) | 2 (Herbicidal ratio of 20% or higher and lower than 40%) | 5 (Herbicidal ratio of 90% or more (almost completely withered)) | – | – | – | – | – | – |
| CON=C(C)CC1CC(OC(=O)COc2ccc(C)cc2)=C(c2c(C)cc(C)cc2C)C1=O (stereo not drawn) [1-072] | 4 (Herbicidal ratio of 70% or higher and lower than 90%) | 5 (Herbicidal ratio of 90% or more (almost completely withered)) | 5 (Herbicidal ratio of 90% or more (almost completely withered)) | 4 (Herbicidal ratio of 70% or higher and lower than 90%) | – | – | – | – | – | – | – | – | – | – | – | 5 (Herbicidal ratio of 90% or more (almost completely withered)) | 2 (Herbicidal ratio of 20% or higher and lower than 40%) | 3 (Herbicidal ratio of 40% or higher and lower than 70%) | 2 (Herbicidal ratio of 20% or higher and lower than 40%) | 5 (Herbicidal ratio of 90% or more (almost completely withered)) | H (Echinochloa crus-galli var. crus-galli) herbicidal effect grade [5, 16]: 5 (Herbicidal ratio of 90% or more (almost completely withered)); K (Lolium multiflorum Lam.) herbicidal effect grade [6, 16]: 5 (Herbicidal ratio of 90% or more (almost completely withered)); N (Amaranthus retroflexus) herbicidal effect grade [7, 16]: 5 (Herbicidal ratio of 90% or more (almost completely withered)); R (Veronica persica) herbicidal effect grade [8, 16]: 0 (Herbicidal ratio of 5% or lower (almost no effect)); c (corn) effect on crop grade [9, 16]: 5 (Herbicidal ratio of 90% or more (almost completely withered)); f (beet) effect on crop grade [10, 16]: 0 (Herbicidal ratio of 5% or lower (almost no effect)) |
| CCCC=CC(=O)OC1=C(c2c(C)cc(C)cc2C)C(=O)C(CC(C)=NOC)C1 (stereo not drawn) [1-090] | 5 (Herbicidal ratio of 90% or more (almost completely withered)) | 5 (Herbicidal ratio of 90% or more (almost completely withered)) | 5 (Herbicidal ratio of 90% or more (almost completely withered)) | 5 (Herbicidal ratio of 90% or more (almost completely withered)) | 5 (Herbicidal ratio of 90% or more (almost completely withered)) | 5 (Herbicidal ratio of 90% or more (almost completely withered)) | 0 (Herbicidal ratio of 5% or lower (almost no effect)) | 0 (Herbicidal ratio of 5% or lower (almost no effect)) | 3 (Herbicidal ratio of 40% or higher and lower than 70%) | 0 (Herbicidal ratio of 5% or lower (almost no effect)) | 5 (Herbicidal ratio of 90% or more (almost completely withered)) | 0 (Herbicidal ratio of 5% or lower (almost no effect)) | 3 (Herbicidal ratio of 40% or higher and lower than 70%) | 3 (Herbicidal ratio of 40% or higher and lower than 70%) | 5 (Herbicidal ratio of 90% or more (almost completely withered)) | – | – | – | – | – | – |

— US11000033B2, “Ketone or oxime compound, and herbicide” (NISSAN CHEMICAL CORPORATION, priority 2014, dated 2021)
